19 compounds from the supplement of paper PMC8967900 can be followed below.
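Further: ALL cell lines in 384-well plates, five doses spanning 10,000-fold, each plate scaled between vehicle and 100 µmol/L benzalkonium chloride controls, sDSS an adapted area-under-curve metric.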

One assay has as its system MHH-CALL-2. Kind of assay: selective drug sensitivity score (sDSS, relative to normal bone marrow) (sDSS (score)); higher = more potent and effective on the cell line relative to normal bone marrow cells. Conditions: 72 h.
As to `Cc1nc(Nc2ncc(C(=O)Nc3c(C)cccc3Cl)s2)cc(N2CCN(CCO)CC2)n1` [Dasatinib] (top concentration 1000 nM), the “selective drug sensitivity score” value was -2.8.
On to `N[C@@H]1CCCN(c2c(/C=C3\SC(=O)NC3=O)cccc2-c2ccccc2)C1` [AZD1208] (top concentration 10000 nM), for which the “selective drug sensitivity score” value was found to be 3.7.
Consider `CC(C)C[C@H](NC(=O)CNC(=O)c1cc(Cl)ccc1Cl)B(O)O` [Ixazomib] (top concentration 1000 nM), for which the “selective drug sensitivity score” value is 5.26.
Still for that read-out and setting: the result for `C=CC(=O)N1CCC[C@@H](n2nc(-c3ccc(Oc4ccccc4)cc3)c3c(N)ncnc32)C1` [Ibrutinib] (top concentration 1000 nM) reads 0.1; that for `Cn1cnc2c(F)c(Nc3ccc(Br)cc3F)c(C(=O)NOCCO)cc21` [Binimetinib] (top concentration 1000 nM), 5.28.
On the same count and under the same terms, the result for `COc1cc(Nc2ncc(F)c(Nc3ccc4c(n3)N(COP(=O)(O)O)C(=O)C(C)(C)O4)n2)cc(OC)c1OC` [Fostamatinib] (top concentration 2500 nM) reads 0.56; that for `COc1cc2c(Oc3ccc(NC(=O)C4(C(=O)Nc5ccc(F)cc5)CC4)cc3F)ccnc2cc1OCCCN1CCOCC1` [Foretinib] (top concentration 1000 nM), 7.04; that for `Sc1ncnc2nc[nH]c12` [Mercaptopurine] (top concentration 10000 nM), 13.4.
Same read-out and setting: the result for `COCCNCc1ccc(-c2cc3nccc(Oc4ccc(NC(=S)NC(=O)Cc5ccc(F)cc5)cc4F)c3s2)nc1` [Glesatinib] (top concentration 2500 nM) reads 0.94; that for `Cn1nccc1Nc1nccc(-c2ccn([C@H](CO)c3ccc(Cl)c(F)c3)c(=O)c2)n1` [Ravoxertinib] (top concentration 10000 nM), 8.4.
In the case of `CC1=NN(c2ccc(C(=O)O)cc2)C(=O)C1=Cc1ccc(-c2cc(C)c(C)cc2[N+](=O)[O-])o1` [C646] (top concentration 25000 nM), the “selective drug sensitivity score” value is -2.06.
On the same count and under the same terms, under `CC(C)c1cc(C(=O)N2Cc3ccc(CN4CCN(C)CC4)cc3C2)c(O)cc1O` [Onalespib] (top concentration 2500 nM) stands -1.28; under `CCN1C(=O)CNc2ncc(-c3ccc(-c4nc[nH]n4)nc3C)nc21` [CC-115] (top concentration 10000 nM), 8.34.
The same measure, in the same setting: the result for `COc1cc(N2CCC(N3CCN(C)CC3)CC2)ccc1Nc1ncc(Cl)c(Nc2ccccc2P(C)(C)=O)n1` [Brigatinib] (top concentration 1000 nM) reads 7.66; that for `CN1CCN(c2nc(C3=C(c4c[nH]c5ccccc45)C(=O)NC3=O)c3ccccc3n2)CC1` [Sotrastaurin] (top concentration 10000 nM), 9.9.
Turning to `CCN(CC)Cc1ccc2cc(COC(=O)Nc3ccc(C(=O)NO)cc3)ccc2c1` [Givinostat] (top concentration 1000 nM), the “selective drug sensitivity score” value turned out to be 8.6.
On the same count and under the same terms, under `CNC(=O)c1cc(Oc2ccc(NC(=O)Nc3ccc(Cl)c(C(F)(F)F)c3)cc2)ccn1` [Sorafenib] (top concentration 1000 nM) stands 0.3; under `COc1ccc(S(=O)(=O)Nc2cccnc2Nc2ccc(O)cc2)cc1` [ABT-751] (top concentration 10000 nM), 12.6; under `C[C@@H](Oc1ccc2[nH]nc(/C=C/c3cnn(CCO)c3)c2c1)c1c(Cl)cncc1Cl` (top concentration 1000 nM), -0.74.

The next assay deals with MN-60. The assay is described as above. Conditions: 72 h.
For `Cc1nc(Nc2ncc(C(=O)Nc3c(C)cccc3Cl)s2)cc(N2CCN(CCO)CC2)n1` [Dasatinib] (top concentration 1000 nM), the “selective drug sensitivity score” value was -1.7.
The same measure, in the same setting: under `N[C@@H]1CCCN(c2c(/C=C3\SC(=O)NC3=O)cccc2-c2ccccc2)C1` [AZD1208] (top concentration 10000 nM) stands -1.8.
Same read-out and setting: under `CC(C)C[C@H](NC(=O)CNC(=O)c1cc(Cl)ccc1Cl)B(O)O` [Ixazomib] (top concentration 1000 nM) stands -1.84; under `C=CC(=O)N1CCC[C@@H](n2nc(-c3ccc(Oc4ccccc4)cc3)c3c(N)ncnc32)C1` [Ibrutinib] (top concentration 1000 nM), 0.
The same measure, in the same setting: the result for `Cn1cnc2c(F)c(Nc3ccc(Br)cc3F)c(C(=O)NOCCO)cc21` [Binimetinib] (top concentration 1000 nM) reads -2.22; that for `COc1cc(Nc2ncc(F)c(Nc3ccc4c(n3)N(COP(=O)(O)O)C(=O)C(C)(C)O4)n2)cc(OC)c1OC` [Fostamatinib] (top concentration 2500 nM), -1.34.
In the case of `COc1cc2c(Oc3ccc(NC(=O)C4(C(=O)Nc5ccc(F)cc5)CC4)cc3F)ccnc2cc1OCCCN1CCOCC1` [Foretinib] (top concentration 1000 nM), the “selective drug sensitivity score” value is -4.46.
Same read-out and setting: the result for `Sc1ncnc2nc[nH]c12` [Mercaptopurine] (top concentration 10000 nM) reads 6.6.
On the same count and under the same terms, under `COCCNCc1ccc(-c2cc3nccc(Oc4ccc(NC(=S)NC(=O)Cc5ccc(F)cc5)cc4F)c3s2)nc1` [Glesatinib] (top concentration 2500 nM) stands -1.96; under `Cn1nccc1Nc1nccc(-c2ccn([C@H](CO)c3ccc(Cl)c(F)c3)c(=O)c2)n1` [Ravoxertinib] (top concentration 10000 nM), -3.2; under `CC1=NN(c2ccc(C(=O)O)cc2)C(=O)C1=Cc1ccc(-c2cc(C)c(C)cc2[N+](=O)[O-])o1` [C646] (top concentration 25000 nM), -2.06.
The same measure, in the same setting: under `CC(C)c1cc(C(=O)N2Cc3ccc(CN4CCN(C)CC4)cc3C2)c(O)cc1O` [Onalespib] (top concentration 2500 nM) stands -0.48.
For the compound `CCN1C(=O)CNc2ncc(-c3ccc(-c4nc[nH]n4)nc3C)nc21` [CC-115] (top concentration 10000 nM), the “selective drug sensitivity score” value was determined as 1.54.
The same measure, in the same setting: under `COc1cc(N2CCC(N3CCN(C)CC3)CC2)ccc1Nc1ncc(Cl)c(Nc2ccccc2P(C)(C)=O)n1` [Brigatinib] (top concentration 1000 nM) stands -2.54; under `CN1CCN(c2nc(C3=C(c4c[nH]c5ccccc45)C(=O)NC3=O)c3ccccc3n2)CC1` [Sotrastaurin] (top concentration 10000 nM), -2.3; under `CCN(CC)Cc1ccc2cc(COC(=O)Nc3ccc(C(=O)NO)cc3)ccc2c1` [Givinostat] (top concentration 1000 nM), -1.2.
Same read-out and setting: the result for `CNC(=O)c1cc(Oc2ccc(NC(=O)Nc3ccc(Cl)c(C(F)(F)F)c3)cc2)ccn1` [Sorafenib] (top concentration 1000 nM) reads 0; that for `COc1ccc(S(=O)(=O)Nc2cccnc2Nc2ccc(O)cc2)cc1` [ABT-751] (top concentration 10000 nM), 5.42; that for `C[C@@H](Oc1ccc2[nH]nc(/C=C/c3cnn(CCO)c3)c2c1)c1c(Cl)cncc1Cl` (top concentration 1000 nM), -7.04.

Another assay relates to MOLT-4. The description is as above. The conditions noted are these: 72 h.
Turning to `Cc1nc(Nc2ncc(C(=O)Nc3c(C)cccc3Cl)s2)cc(N2CCN(CCO)CC2)n1` [Dasatinib] (top concentration 1000 nM), the “selective drug sensitivity score” value was 1.9.
`N[C@@H]1CCCN(c2c(/C=C3\SC(=O)NC3=O)cccc2-c2ccccc2)C1` [AZD1208] (top concentration 10000 nM): the “selective drug sensitivity score” value was -4.4.
For the compound `CC(C)C[C@H](NC(=O)CNC(=O)c1cc(Cl)ccc1Cl)B(O)O` [Ixazomib] (top concentration 1000 nM), the “selective drug sensitivity score” value was found to be 5.46.
As for `C=CC(=O)N1CCC[C@@H](n2nc(-c3ccc(Oc4ccccc4)cc3)c3c(N)ncnc32)C1` [Ibrutinib] (top concentration 1000 nM), the “selective drug sensitivity score” value worked out at 1.4.
On the same count and under the same terms, the result for `Cn1cnc2c(F)c(Nc3ccc(Br)cc3F)c(C(=O)NOCCO)cc21` [Binimetinib] (top concentration 1000 nM) reads -2.02; that for `COc1cc(Nc2ncc(F)c(Nc3ccc4c(n3)N(COP(=O)(O)O)C(=O)C(C)(C)O4)n2)cc(OC)c1OC` [Fostamatinib] (top concentration 2500 nM), -2.04; that for `COc1cc2c(Oc3ccc(NC(=O)C4(C(=O)Nc5ccc(F)cc5)CC4)cc3F)ccnc2cc1OCCCN1CCOCC1` [Foretinib] (top concentration 1000 nM), 0.64.
Same read-out and setting: the result for `Sc1ncnc2nc[nH]c12` [Mercaptopurine] (top concentration 10000 nM) reads 8.7.
Still for that read-out and setting: under `COCCNCc1ccc(-c2cc3nccc(Oc4ccc(NC(=S)NC(=O)Cc5ccc(F)cc5)cc4F)c3s2)nc1` [Glesatinib] (top concentration 2500 nM) stands -0.96.
